Source: US20260174860A1, “HYBRID COMPOUNDS OF SCLAREOL AND DOXORUBICIN, THEIR SYNTHESIS AND APPLICATION” (INSTITUTE FOR BIOLOGICAL RESEARCH "SINISA STANKOVIC" - …, priority 2023, published 2026)

Assays:
breast cancer cell lines = conditions: 0.1 μM DOX alone or combined with 50 μM SC; cited from earlier work
[1] = tested on: P-glycoprotein-deficient NCI-H460 cells; test: DOX and rhodamine 123 accumulation test, flow cytometry; assay type: cell-based, human; conditions: 50 μM SC
Experimental: • a) First, DOX accumulation test was performed on three glioblastoma cell lines, U87, U87-TxR, and U251. Cells were trypsinized and counted, and then 100,000 cells per sample were collected in a tube for flow cytometry and resuspended in 500 μL of culture medium. Cells were treated with 20 μM and 50 µM SC. Immediately after SC treatment, cells were treated with 20 μM DOX, and samples were incubated at 37° C. in a humid atmosphere with 5% CO2 for 60 min. After the accumulation period, the samples were centrifuged, washed twice with cold Phosphate Buffered Saline (PBS), and finally resuspended in 1 mL of PBS. The fluorescence of the samples was read on the FL2 (red channel) of a cytofluorimeter (Partec, Munster, Germany), and the results were analyzed with the software package Summit 4.3. • b) Secondly, DOX and rhodamine 123 accumulation test was performed on non-small cell lung carcinoma cell lines NCI-H460 and NCI-H460/R. Cells were trypsinized and counted, and then 100,000 cells per sample were collected in a tube for flow cytometry and resuspended in 500 μl of culture medium. Cells were treated with 50 μM SC. Immediately after treatment, 5 μM Rho123 was added to one group of samples and the other 20 μM DOX. […] The samples were analyzed using a flow cytometer, reading for rhodamine 123 on FL1 (green channel) and DOX on FL2 (red channel). […]

[2] = Zetasizer measurement of size, polydispersity and zeta potential; assay type: physicochemical; conditions: 25° C., diluted 100 times with ultrapure water, mean of three
Experimental: The Malvern Zetasizer Nano ZS (Malvern Instruments, United Kingdom) was used to analyze the physico-chemical stability characteristics of conjugates. The measurement range was from 0.6 nm up to […]. The mean size of conjugates, the polydispersity index (PDI) and zeta potential were measured. All measurements were taken at a temperature of 25° C. and each sample was diluted 100 times with ultrapure water. The measurements were repeated three times, and the results were presented as the mean value. PDI is a parameter used to define the size range of particles. The term “polydispersity” (or “dispersity” as recommended by IUPAC) describes the degree of non-uniformity of a size distribution of particles. Zeta potential represents the surface charge of nanoparticles and indicates their long-term stability.

Compound: COc1cccc2c1C(=O)c1c(O)c3c(c(O)c1C2=O)C[C@@](O)(C(=O)CO)C[C@@H]3O[C@H]1C[C@H](N)[C@H](O)[C@H](C)O1 [DOX, doxorubicin]
- rate of cell growth (breast cancer cell lines): 76%

Compound: C=C[C@](C)(O)CC[C@@H]1[C@@]2(C)CCCC(C)(C)[C@@H]2CC[C@@]1(C)O [SC, sclareol]
- DOX or rhodamine 123 accumulation [1]: did not show any increase

Compound: N1-((25,3S,4S,6R)-3-hydroxy-2-methyl-6-(((1S,3S)-3,5,12-trihydroxy-3-(2-hydroxyacetyl)-10-methoxy-6,11-dioxo-1,2,3,4,6,11-hexahydrotetracen-1-yl)oxy)tetrahydro-2H-pyran-4-yl)-N4-(3-((4-((R,E)-3-hydroxy-5-((1R,2R,4aS,8aS)-2-hydroxy-2,5,5,8a-tetramethyldecahydronaphthalen-1-yl)-3-methylpent-1-en-1-yl)benzyl)amino)propyl) succinamide [CON1]
- Z-Average [2]: 189.4 ± 9.7 nm·days
